In series [1] the test system is PDE4 (human promonocytic U937 cells). Kind of series: PDE4 inhibition, Phosphodiesterase [3H] cAMP SPA enzyme assay with U937 extract. It is filed as biochemical. To be noted: 1 μM [3H] cAMP. The source says:
A test compound may be screened for activity against 11 of the major classes of mammalian cyclic nucleotide phosphodiesterase (termed PDE 1 through 11). These PDE's may use cAMP or cGMP or both cyclic nucleotides as substrates. […] PDE's for some of the various assays may be fully or partially purified from the following cells/tissues: PDE 1 (bovine heart), PDE 2 (human platelets), PDE 3 (human platelets), PDE4 (human promonocytic U937 cells) and PDE 5 (human platelets).
In the following descriptions, amounts are exemplary, and may be varied. […] Sonicated cell extracts are then centrifuged at 70,000 g for 30 minutes and supernatants removed. Sucrose is added to a final concentration of 0.25 M, then the extracts are aliquoted and stored at −80° C.
Briefly, the assay is run for 60 minutes at room temperature in 50 μL volumes in 1 μM [^3H] cAMP, 50 mM Tris Cl, 10 mM MgCl2 pH 7.5. U937 extract is added such that less than 10% of substrate was consumed. Test compound or vehicle is added to the desired concentration. […] Reactions are performed in duplicate. Reactions are terminated with 50 μl of Yttrium SPA beads and then counted on a Packard Scintillation counter (TopCount™) for 1 minute.

In series [2] the target is T1, HARBS site of PDE4.
T1 construct: HARBS IC50; other: mouse brain membranes, [3H]-ROLIPRAM displacement; other: mouse brain; other: relative to ROLIPRAM (25, 26) or
Kind of series: Displacement of [3H]-ROLIPRAM from the high affinity binding site (HARBS) in mouse brain membranes. The settings on record: for IC50: mouse brain membranes, [3H]-ROLIPRAM displacement. As for the experimental part: (§1) In order to perform this assay, female CD1 mice are sacrificed via the intraperitoneal injection of 100 μL ethanol, and the brain tissue is homogenized in 5 mL of ice-cold Tris-HCl, pH 8.00 supplemented with 1.2 mM MgCl2, 1 mM benzamidine (Sigma; Catalogue No. B 6506) and 0.1 mM PMSF (Sigma; Catalogue No. P 7626). The suspension is centrifuged twice at 30,000×G at 4° C. and then the supernatant discarded. The pellet is resuspended in buffer, and adjusted to a protein concentration of 0.5 mg/mL. Compounds to be tested are dissolved in DMSO and pipetted in triplicate into a 96 well microplate at concentrations ranging from 1 to 30,000 nM. […] The plate is incubated at 4° C. for 1 hour. Contents of the plate are aspirated through a Whatman GF/C filterplate, and rinsed with 4×200 μL ice-cold buffer. The plate is dried overnight, and then 30 μL of Microscint 20 (Packard; Catalogue No. 6013621) is added to each well, and plate is read in the scintillation counter with a sampling time of 2 minutes/well. […] Triplicate determinations should be performed at each concentration.

The subject of series [3] is HARBS site of PDE4. The series is described as above. The settings on record: for Ratio (PDE4/HARBS): ratio of PDE4 catalytic IC50 to HARBS IC50. As for the experimental part:
as §1

Series [4] deals with ferret model of emesis. Description: Emetic threshold after intravenous infusion in the ferret model of emesis. It is filed as in vivo, ferret (Mustela putorius furo). The settings on record: for Emetic Threshold: 5 minute intravenous infusion, 3 hour observation. The source says:
The most recognized pre-clinical animal model for emesis is the ferret. The ferret undergoes a very characteristic, reproducible and well-documented series of behavioral responses, including backward walking, pawing of the mouth, arching of the back, retching and vomiting when dosed with an emetogenic compound. With respect to PDE4 inhibitors their emetogenic potential has been correlated with the ability of compounds to bind to a conformer of the enzyme to which ROLIPRAM™ binds with nanomolar affinity (the HARBS binding site). The central nervous system (CNS) and emetic effects of PDE4 inhibitors are therefore thought in large part to be due to the interaction of these compounds with this particular conformer of PDE4 which is especially prevalent in both the central and peripheral nervous system as well as in cells of the lumen of the gastrointestinal tract (i.e., parietal cells of the stomach).
Adult male ferrets (Mustela putorius furo, sable, 0.75-1.5 kg, Marshall Farms, USA) were quarantined and acclimated to the testing facility for seven days prior to initiation of the study. For intravenous infusion dosing, a catheter was surgically inserted in the jugular vein a minimum of 14 hours prior to administration of test articles and the catheter was maintained for patency by flushing with heparin solution daily. After surgery for catheter insertion the ferrets were individually housed in cages. Animals were fasted 12-16 hours prior to dosing and during the behavioral assessment period. They were returned to normal food diet after the observation periods. Animals found acceptable for inclusion in the study were randomly assigned to the each of the study groups (n=3 for each of the two treatment groups and n=3 for the vehicle negative control group).
Test compounds (ROLIPRAM™ and Compound 25) were freshly dissolved on the day of dosing in the vehicle, polyethylene glycol (PEG) 200 (Sigma catalogue number P-3015), to the required concentration in order to achieve the target dose. Animals in the control (PEG 200) and treatment (ROLIPRAM™ or Compound 25) groups were administered the dosing formulation at 3 ml/kg by intravenous infusion over a 5 minute period via the catheter inserted in the jugular. Continual observation for signs of emetic behavior were begun for each of the animals in the study groups immediately following completion of the 5 minute dosing period and for a period of three hours. Sequential recordings of emetic behaviour were noted on a separate data collection sheet for each animal which included the time of onset of each event as well as the duration and nature of the event (i.e., retching, gagging, vomiting, back arching, backward walking etc.).
The target doses for each of the test articles are shown below in Table 3. If animals expressed no emetic behaviour at the lowest dosage then animals were dosed again with semi-log increasing doses of test article and the three hour observation period repeated until the emetic threshold (lowest of test doses causing emesis) was reached or until the highest of the 4 target doses was completed. There was a 24 hr. washout period between each of the successive ascending doses of test article to allow the compound to clear the animals' system. […] If the emetic response was minimal at a particular dose level then the next dose level could be performed to confirm the threshold level.

Consider four compounds from US7459479B2, “Benzylated PDE4 inhibitors” (Biolipox AB, priority 2000, dated 2008).

As to `COc1cc(CC2C(=O)NCC2c2ccc(OC)c(OC3CCCC3)c2)ccc1OCc1ccccc1` (centres unmarked) [Compound 25], the half-maximal inhibitory concentration (IC50) turned out to be 400 nM in series [1] and 361 nM in series [2]. The “reduction of HARBS binding affinity relative to parent non-benzylated compound” value in series [2] (relative to ROLIPRAM (25, 26) or ARIFLO (41)) is recorded as 56 fold. The “Ratio (PDE4/HARBS)” value in series [3] is given as 1.1. The “Emetic Threshold” value is on record as over 3.0 mg/kg in series [4] (ferrets) and “greater than 3 mg/kg” in series [4] (ferrets, listed as compound 25). Further, the “higher doses required to achieve emesis compared to rolipram” value in series [4] (ferrets, i.v. infusion) is recorded as “at least 10 fold”. In addition, in series [4] (up to and including highest dose level tested (3 mg/kg) i.v. infusion), the emetic behaviour result is “no emetic behaviour whatsoever”.
On to `COc1ccc([C@]2(C#N)CC[C@@H](C(=O)O)CC2)cc1OC1CCCC1` [ARIFLO ™, reference compound], for which the IC50 in series [1] amounted to 180 nM; in series [2], 76 nM. For the same compound, the “Ratio (PDE4/HARBS)” value in series [3] is reported as 2.4.
In series [1], `COc1cc(CC2C(=O)NCC2c2ccc(OC)c(OC3CCCC3)c2)ccc1O` (centres unmarked) [Compound 26] registered an IC50 of 1490 nM.
As to `COc1ccc(C2CNC(=O)C2)cc1OC1CCCC1` (centres unmarked) [ROLIPRAM ™, reference compound], in series [3], the “greater affinity to high affinity site than the concentration required for half-maximal inhibition of PDE4 catalytic activity” value worked out at 65 fold. In addition, the emetic signs result in series [4] (0.1 mg/kg i.v. infusion) is “Emetic signs were also evident”. Also, in series [4] (0.3 mg/kg i.v. infusion, n=3), the “ferrets exhibiting a definite emetic response” value is recorded as “one of the three ferrets”. Also, in series [4] (0.3 mg/kg i.v., in one ferret, over 9 minutes starting at 10 minutes post-dosing), the mild retches observed amounted to 5. In addition, the “Emetic Threshold” value in series [4] (ferrets) was 0.3 mg/kg.
